# Tested on: tobacco budworm (Heliothis virescens)
# Assay: Test H: soil systemic control of tobacco budworm on cotton
# Assay type: in vivo
# Settings: soil treatment at 10 ppm
# Protocol: For evaluating soil systemic control of tobacco budworm (Heliothis virescens), cotton plants were grown in sassafras soil in 15-cm pots in aluminum trays. When the plants reached square stage (bud formation on the plant) the plants were treated with the test compounds.
# Test compounds were formulated in 0.25 mL of acetone and then diluted with water to provide solutions of 1, 5, 10 and 50 ppm. 10 mL of the treatment solutions were added to the pots weekly for four weeks, with four replicates of each treatment rate. One day after the second, third and fourth treatments, 35-50 first instar Heliothis virescens larvae were brushed on each plant with paintbrushes and placed on the terminal area, squares, and bolls. Five days after the last infestation with larvae the plants were rated for damage. Of the compounds tested, the following provided excellent levels of plant protection at 10 ppm (10% or less feeding damage): 16.
structure (smiles),measurement,setting,value
Cc1cc(Br)cc(C(=O)NC(C)C)c1NC(=O)c1cc(Br)nn1-c1ncccc1Cl [Compound 16],protection of squares and bolls,,no feeding or minimal sepal damage
same,feeding damage (excellent levels of plant protection),"10 mL weekly for four weeks, rated five days after last infestation",≤ 10%

# — patent US9084422B2, “Anthranilamides compositions” (E I DU PONT DE NEMOURS AND COMPANY, priority 2001, dated 2015)
